Measurements published in PMC8486872, “A rational blueprint for the design of chemically-controlled protein switches” (Nature Communications, 2021).
“And” between values parts separate entries of the source, which are not always exact repeats. Equal entries are not always repeated.

How the values were obtained:
[1] = target: T1, LD3 in the presence of Drug-1 (Homo sapiens, UniProt Q07817, DEL45-84/F105I/R102E); test: SPR pre-screening and competition of Drug-1 resistant Bcl-XL mutants binding LD3; settings: Fig S10d
T1 construct: 6xHis (N); made in house; host or cells: E. coli BL21(DE3)
T1 sequence (Q07817 with tags, fused parts or gaps DEL45-84/R102E/F105I limits assumed): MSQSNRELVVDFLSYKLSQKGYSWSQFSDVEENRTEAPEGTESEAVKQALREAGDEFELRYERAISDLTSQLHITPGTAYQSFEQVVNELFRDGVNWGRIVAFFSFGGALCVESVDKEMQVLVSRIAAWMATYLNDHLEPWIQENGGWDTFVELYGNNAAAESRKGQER
Protocol: Supplementary Figure 10: Biophysical and cellular characterization of designed Drug-1- […]
a) Pre-screening of Drug-1 resistant Bcl-XL mutants by SPR. 5 µM of Bcl-XL and five mutants were mixed with 10 µM of Drug-1 and injected over the LD3 immobilized chip to analyse the binding response. […]
dilutions of Drug-1 were pre-mixed with 4 µM LD3 and injected over iBcl-XL_v3 immobilized chip to collect the response. c) Dissociation constant measurement of iBcl-XL_v3 and LD3. Sensorgrams are in black dashed curves and the fitted curves in solid red lines. Kd was using a 1:1 binding model. d) […]
normalized to the positive control (DMSO group). […]

[2] = system: Bcl-XL:LD3 complex (CDH-1); test: SPR drug competition assay, Bcl-XL:LD3 (CDH-1) with Drug-1; type: binding; settings: Fig S10d
Protocol: Drug IC50s of disrupting CDH heterodimers were measured on a Biacore 8 K device. 4 µM of LD3 and its variants (LD3_v1-3) or LD6 were mixed with their respective drugs. […] Multiple-cycle injection of the protein-drug complex with different stoichiometry were performed to measure the decrease of maximal RUs (response units at 120 sec). Apparent IC50s were obtained using the inhibition versus response fitting models in prism software (Version 8.3.0).
Apparent IC50s of SPR drug competition assay were calculated using three-parameter nonlinear regression in GraphPad Prism (Version 8.3.0). Representative data of cellular assays are presented as individual values and mean values (bars). n = 3 refers to biological replicates. All IC50/EC50 values of cellular assays (CDH-TF, CDH-GEMS, AIR-TF and AIR-GEMS) reported were calculated using four-parameter nonlinear regression ± s.d. […]
Readouts from the
sensorgrams were extracted at the time point 120 s to calculate the IC50s using a three-parameter

CN(C)CC#Cc1ccc(OCCCc2sc(N3CCc4cccc(C(=O)Nc5nc6ccccc6s5)c4C3)nc2C(=O)O)c(F)c1 [Drug-1, A-1155463]
iBcl-XL_v3 response ([1]; Drug-1 0.001 nM): 174.876 and 175.206 and 177.174 | iBcl-XL_v3 response ([1]; Drug-1 0.01 nM): 215.202 and 222.394 and 221.188 | iBcl-XL_v3 response ([1]; Drug-1 0.05 nM): 207.736 and 204.171 and 203.036 | iBcl-XL_v3 response ([1]; Drug-1 0.1 nM): 189.507 and 193.343 and 194.134 | iBcl-XL_v3 response ([1]; Drug-1 0.5 nM): 204.985 and 206.922 and 206.979 | iBcl-XL_v3 response ([1]; Drug-1 1 nM): 184.864 and 185.609 and 186.635 | iBcl-XL_v3 response ([1]; Drug-1 10 nM): 194.117 and 193.916 and 200.456 | iBcl-XL_v3 response ([1]; Drug-1 50 nM): 193.965 and 195.069 and 198.505 | iBcl-XL_v3 response ([1]; Drug-1 100 nM): 183.254 and 186.244 and 183.907 | iBcl-XL_v3 response ([1]; Drug-1 500 nM): 165.059 and 166.616 and 165.103 | iBcl-XL_v3 response ([1]; Drug-1 1000 nM): 154.762 and 156.9 and 154.341 | IC50 ([1]; iBcl-XL_v3, best-fit, inhibitor vs. response (three parameters)): 0.705 µM | logIC50 ([1]; iBcl-XL_v3, best-fit, three parameters, Drug-1 in nM): 2.848 | IC50 ([2]; Bcl-Xl:LD3, best-fit, inhibitor vs. response (three parameters)): 0.00022 µM | logIC50 ([2]; Bcl-Xl:LD3, best-fit, three parameters, Drug-1 in nM): -0.658 | Bcl-Xl:LD3 response ([2]; Drug-1 0.001 nM): 275.326 and 251.306 and 243.642 | Bcl-Xl:LD3 response ([2]; Drug-1 0.005 nM): 242.985 and 229.287 and 224.833 | Bcl-Xl:LD3 response ([2]; Drug-1 0.01 nM): 223.576 and 215.113 and 215.946 | Bcl-Xl:LD3 response ([2]; Drug-1 0.05 nM): 225.211 and 226.402 and 224.55 | Bcl-Xl:LD3 response ([2]; Drug-1 0.1 nM): 186.039 and 182.298 and 182.078 | Bcl-Xl:LD3 response ([2]; Drug-1 0.5 nM): 123.883 and 120.417 and 119.693 | Bcl-Xl:LD3 response ([2]; Drug-1 1 nM): 121.627 and 115.582 and 111.718 | Bcl-Xl:LD3 response ([2]; Drug-1 5 nM): 122.215 and 115.477 and 118.457 | Bcl-Xl:LD3 response ([2]; Drug-1 10 nM): 92.0281 and 92.2496 and 88.1833 | Bcl-Xl:LD3 response ([2]; Drug-1 50 nM): 84.1354 and 86.416 and 84.392 | Bcl-Xl:LD3 response ([2]; Drug-1 100 nM): 81.6073 and 77.884 and 79.2329 | Bcl-Xl:LD3 response ([2]; Drug-1 500 nM): 65.1408 and 62.8874 and 62.5965 | Bcl-Xl:LD3 response ([2]; Drug-1 1000 nM): 42.6601 and 38.7292 and 40.0074
